In patent US5126341A, “Anti-inflammatory 1,8-naphthyridin-2-one derivatives” (Kyowa Hakko Kogyo Co., Ltd., priority 1990, dated 1992):
Read-outs that look alike come from different tables or passages of the source.

Tests used:
[1] = tested on: zymosan-induced paw edema; test: Effect on zymosan-induced paw edema; assay type: in vivo, male Wistar rats; conditions: rat, 100 mg/kg p.o., 1 hour before 1% zymosan; paw volume 4 hours after injection
Procedure: b) Effect on zymosan-induced paw edema
(§1) The experiment was carried out in the same manner as in the carrageenin-induced paw edema test except that 1% zymosan (Zymosan A®; Sigma Chemical Co.) was used in place of 1% carrageenin and the right hind paw volume was measured 4 hours after the injection of the edema-inducing substance instead of 3 hours. The swelling rate and the suppression rate were calculated by equation 1 and equation 2, respectively.

[2] = tested on: Type III allergic reaction-induced pleurisy; test: Effect on Type III allergic reaction-induced pleurisy; assay type: in vivo, male Wistar rats; conditions: po, 4.5 h, rat, 100 mg/kg p.o., four and a half hours after induction of pleurisy
Procedure: d) Effect on Type III allergic reaction-induced pleurisy
IgG was purified from rabbit anti-OA serum prepared in advance by the method of Koda et al. [Folia Pharmacol., Japon 66, 237, (1970)] in the following manner.
A saturated solution of ammonium sulfate (half volume of the serum) was added to the anti-OA serum, and the mixture was left for one hour at 4° C. The precipitate was taken by centrifugation (3,000 rpm, 30 min, 4° C.) and dissolved in phosphate buffered saline of Dulbecco. Then, ammonium sulfate fractionation was carried out three times in the same manner as above, whereby a purified IgG fraction was obtained.
Male Wistar rats weighing 225-250 g were pre-bred for several days and fasted overnight prior to the experiment The test compound (100 mg/kg) was orally administered to the animals, and after 30 minutes, IgG of rabbit anti-OA (0.2 ml, 5 mg protein/ml) was injected into the pleural cavity of the animals under anesthesia with ether. Thirty minutes after the injection of IgG, OA (albumin egg grade III; Sigma Chemical Co.) was intravenously injected into the animals as an inducer of pleurisy. After two hours, Evans Blue (25 mg/kg) was intravenously injected, and four and a half hours after the induction of pleurisy, the animals were killed by bleeding.
Then, an exudate in the pleural cavity was obtained, and the volume of the exudate was measured. The pleural cavity was rinsed with 5 ml of physiological saline and the rinsings were added to the exudate. The number of infiltrated cells in the mixture was counted and the volume of the dye in the mixture was determined by the absorption at 625 nm [Agent Actions., 25, 326 (1988)]. The suppression rates for the volume of the exudate, the number of infiltrated cells and the volume of the dye in the pleural cavity were calculated by the following equation 3. [formula]
S.V: the value obtained with the group administered with the test compound and in which pleurisy is induced
N.V: the value obtained with the group in which pleurisy is not induced
P.V: the value obtained with the group administered with no test compound and in which pleurisy is induced

male dd-mice = conditions: mouse, in vivo, 10080 min; for Acute toxicity (MLD, Minimum Lethal Dose) i.p.: ip; for Acute toxicity (MLD, Minimum Lethal Dose) p.o.: po
Procedure: The test compounds were orally or intraperitoneally administered to male dd-mice weighing 20 to 25 g. MLD (Minimum Lethal Dose) was determined by observing the mortality for seven days after the administration.

[3] = tested on: carrageenin-induced paw edema; test: Effect on carrageenin-induced paw edema; assay type: in vivo, male Wistar rats; conditions: po; rat, 100 mg/kg p.o., 1 hour before 1% carrageenin; paw volume 3 hours after injection; read-out: Suppression rate for paw swelling, (a) carrageenin-induced edema
Procedure: a) Effect on carrageenin-induced paw edema
Male Wistar rats weighing 150 to 160 g (n=3-5) were used in the experiment. After the right hind paw volume was measured with the plethysmograph (TK-101; Unicom Co., Ltd.), the test compound (100 mg/kg) was orally administered. After one hour, 0.1 ml of 1 % carrageenin (λ-carrageenin; PICNIN-A®, Zushi Kagaku Co., Ltd.) was subcutaneously injected into the right hind paw footpad. Three hours after the injection of carrageenin, the right hind paw volume was measured and the swelling rate was determined by the following equation 1. [formula]
Vt: the right hind paw volume measured 3 hours after the injection of carrageenin
Vo: the right hind paw volume measured prior to the injection of carrageenin
The suppression rate was calculated by the following equation 2. [formula]
Swt: the swelling rate of the group administered with the test compound
Swc: the swelling rate of the control group administered with no test compound

[4] = tested on: arachidonic acid-induced paw edema; test: Arachidonic acid-induced paw edema; assay type: in vivo, male Wistar rats; conditions: rat, 100 mg/kg p.o., 1 hour before 0.5% arachidonic acid; paw volume one hour after injection
Procedure: c) Arachidonic acid-induced paw edema
as §1, with “0.5% arachidonic acid” for “1% zymosan (Zymosan A®; Sigma Chemical Co.)”, “one hour” for “4 hours”

[5] = Evans Blue 25 mg/kg i.v., absorption at 625 nm, read-out: Suppression rate, volume of dye in the exudate
[6] = read-out: Suppression rate, volume of exudate
[7] = read-out: Suppression rate, number of infiltrated cells in the exudate

Structure (SMILES)	Suppression rate for paw swelling, (b) zymosan-induced edema [1] [%]	inhibition in vivo at 100 mg/kg [2, 5] [%]	inhibition in vivo at 100 mg/kg [2, 6] [%]	Acute toxicity (MLD, Minimum Lethal Dose) i.p. (male dd-mice) [mg/kg]	Acute toxicity (MLD, Minimum Lethal Dose) p.o. (male dd-mice) [mg/kg]	inhibition in vivo at 100 mg/kg [3] [%]	inhibition in vivo at 100 mg/kg [2, 7] [%]	Suppression rate for paw swelling, (c) arachidonic acid-induced edema [4] [%]
CCCCNC(=O)c1c(O)c2cccnc2n(-c2ccccc2)c1=O [Compound 1, N-(n-Butyl)-4-hydroxy-2-oxo-1-phenyl-1H-1,8-naphthyridine-3-carboxamide]	20.5							
CNC(=O)c1c(O)c2cccnc2n(-c2ccccc2)c1=O [Compound 2, 4-Hydroxy-N-methyl-2-oxo-1-phenyl-1H-1,8-naphthyridine-3-carboxamide]		28.3	27.2					
CN(C)NC(=O)c1c(O)c2cccnc2n(-c2ccccc2)c1=O [Compound 6, N-Dimethylamino-4-hydroxy-2-oxo-1-phenyl-1H-1,8-naphthyridine-3-carboxamide]	27.3			> 100	> 300	31.7		
CN(C)CCNC(=O)c1c(O)c2cccnc2n(-c2ccccc2)c1=O [Compound 7, N-(2-Dimethylaminoethyl)-4-hydroxy-2-oxo-1-phenyl-1H-1,8-naphthyridine-3-carboxamide]				> 100	> 300	23.2		
O=C(Nc1cccc(Cl)c1)c1c(O)c2cccnc2n(-c2ccccc2)c1=O [Compound 8, N-(3-Chlorophenyl)-4-hydroxy-2-oxo-1-phenyl-1H-1,8-naphthyridine-3-carboxamide]							21.7	
Cc1cccc(NC(=O)c2c(O)c3cccnc3n(-c3ccccc3)c2=O)c1 [Compound 9, 4-Hydroxy-N-(3-methylphenyl)-2-oxo-1-phenyl-1H-1,8-naphthyridine-3-carboxamide]			27.3	> 100	> 300	25.2	28.5	
O=C(Nc1cccc([N+](=O)[O-])c1)c1c(O)c2cccnc2n(-c2ccccc2)c1=O [Compound 11, 4-Hydroxy-N-(3-nitrophenyl)-2-oxo-1-phenyl-1H-1,8-naphthyridine-3-carboxamide]		37.2	22.1	> 100	> 300			
O=C(Nc1nccs1)c1c(O)c2cccnc2n(-c2ccccc2)c1=O [Compound 12, 4-Hydroxy-2-oxo-1-phenyl-N-(2-thiazolyl)-1H-1,8-naphthyridine-3-carboxamide]		24						
O=C(Nc1nc2ccccc2s1)c1c(O)c2cccnc2n(-c2ccccc2)c1=O [Compound 13, N-(2-Benzothiazolyl)-4-hydroxy-2-oxo-1-phenyl-1H-1,8-naphthyridine-3-carboxamide]		25.8	28.9					
COc1ccc(NC(=O)c2c(O)c3cccnc3n(-c3ccccc3)c2=O)cc1 [Compound 16, 4-Hydroxy-N-(4-methoxyphenyl)-2-oxo-1-phenyl-1H-1,8-naphthyridine-3-carboxamide]							25.4	
Cc1ccc(NC(=O)c2c(O)c3cccnc3n(-c3ccccc3)c2=O)cc1 [Compound 17, 4-Hydroxy-N-(4-methylphenyl)-2-oxo-1-phenyl-1H-1,8-naphthyridine-3-carboxamide]			22.4				21.5	
COc1cccc(NC(=O)c2c(O)c3cccnc3n(-c3ccccc3)c2=O)c1 [Compound 18, 4-Hydroxy-N-(3-methoxyphenyl)-2-oxo-1-phenyl-1H-1,8-naphthyridine-3-carboxamide]			26.9				22.1	
COc1ccccc1NC(=O)c1c(O)c2cccnc2n(-c2ccccc2)c1=O [Compound 19, 4-Hydroxy-N-(2-methoxyphenyl)-2-oxo-1-phenyl-1H-1,8-naphthyridine-3-carboxamide]				> 100	> 300	34.2	26.8	
O=C(NC1CCN(Cc2ccccc2)CC1)c1c(O)c2cccnc2n(-c2ccccc2)c1=O [Compound 21, N-(1-Benzylpiperidin-4-yl)-4-hydroxy-2-oxo-1-phenyl-1H-1,8-naphthyridine-3-carboxamide]		50.2	32.4				22.1	
O=C(NC1=NCCS1)c1c(O)c2cccnc2n(-c2ccccc2)c1=O [Compound 22, 4-Hydroxy-2-oxo-1-phenyl-N-(thiazolin-2-yl)-1H-1,8-naphthyridine-3-carboxamide]		51	89.2	> 100	> 300		34.6	33.4
O=C(Nc1cnccn1)c1c(O)c2cccnc2n(-c2ccccc2)c1=O [Compound 23, 4-Hydroxy-2-oxo-1-phenyl-N-(pyrazin-2-yl)-1H-1,8-naphthyridine-3-carboxamide]	22.2	43.2	24	> 100	> 300	22.7	26.7	
CCc1nnc(NC(=O)c2c(O)c3cccnc3n(-c3ccccc3)c2=O)s1 [Compound 24, 4-Hydroxy-2-oxo-1-phenyl-N-(5-ethyl-1,3,4-thiadiazol-2-yl)-1H-1,8-naphthyridine-3-carboxamide]		32.1	29.7					
O=C(NN1CCOCC1)c1c(O)c2cccnc2n(-c2ccccc2)c1=O [Compound 27, 4-Hydroxy-N-morpholino-2-oxo-1-phenyl-1H-1,8-naphthyridine-3-carboxamide]		23.6						
O=C(NCc1ccncc1)c1c(O)c2cccnc2n(-c2ccccc2)c1=O [Compound 28, 4-Hydroxy-2-oxo-1-phenyl-N-(4-pyridylmethyl)-1H-1,8-naphthyridine-3-carboxamide]				> 100	> 300	27.3		41.6
O=C(NCc1cccnc1)c1c(O)c2cccnc2n(-c2ccccc2)c1=O [Compound 29, 4-Hydroxy-2-oxo-1-phenyl-N-(3-pyridylmethyl)-1H-1,8-naphthyridine-3-carboxamide]				> 100	> 300			33.3
